{
  "source": "patent US20020061924A1",
  "about": "“Agent containing tocotrienol for drug” (priority 2000, published 2002)",
  "key": {"[1]": {"test_system": "human erythrocyte membrane", "assay": "Reactivity with AAPH radicals on human erythrocyte membrane (residual rate)", "format": "cell-based", "details": "for Residual Rate (%) 1 hr. / Residual Rate (%) 2 hrs. / Residual Rate (%) 3 hrs.: 10% erythrocyte suspension, 75 mM AAPH, 37° C.; for Residual Rate (%) 1 hr.: after 1 hour; for Residual Rate (%) 2 hrs.: after 2 hours; for Residual Rate (%) 3 hrs.: after 3 hours", "description": "Human erythrocytes to be tested were prepared from blood of a healthy person by treating the blood according the method disclosed in Lipids, vol. 33 (6), p589-595 (1998). Actually, blood drawn from a healthy person was put in a test tube containing EDTA-2Na (1 mg/ml), and certrifuged at 1000×g at 4° C. for 20 minutes to be separated into erythrocytes and plasma. The erythrocytes were washed three times with 5 parts by volume of phosphate-buffered saline (PBS), and centrifuged exactly at 1000×g for 20 minutes to obtain a definite volume of packed erythrocytes.\nThe erythrocytes were subjected to hemolysis test according to the method of Miki et al., Arch. Biochem. Biophys. 258, p373-380. 0.5 ml of the human erythrocytes were suspended into 4 parts by volume of PBS, and a-tocotrienol ethanol solution was added thereto wherein the final ethanol concentration was made 0.5% (v/v) or less. After incubating the mixture at 37° C. for 30 minutes, the erythrocytes were washed. 10% suspension of the erythrocytes was incubated again. To the suspension, 75 mM AAPH-PBS solution was added, and oxidation was carried out at 37° C. in a dark place with stirring. The state of erythrocyte membrane, which was destroyed by radicals to induce hemolysis, was observed.\nSimilarly, the human erythrocytes were incubated with α-tocopherol for 30 minutes, washed, and 10% suspension of the erythrocytes was incubated again. To the suspension, 75 mM AAPH was added, and the state of erythrocyte membrane, which was destroyed by radicals to induce hemolysis, was observed.\nReactivity of α-tocotrienol and α-tocopherol with radicals on human erythrocyte membrane was examined, and residual rate of α-tocotrienol and α-tocopherol in solution was measured after 1, 2 and 3 hours."}, "Human erythrocytes": {"test_system": "Human erythrocytes", "assay": "Deformability of erythrocytes by Micro-Channel Array Flow Analyzer (MC-FAN)", "format": "cell-based", "details": "for Passage Time: Table 1, control 54 ± 3; for Ratio to Control: passage time relative to control (1.00)", "description": "Deformability of erythrocytes was measured using a Micro-Channel Array Flow Analyzer (MC-FAN) illustrated in FIG. 3 which measures time for passing total volume of an erythrocyte (8-10 μm) through a pore (6 μm) of a microchip.\nHuman erythrocytes were incubated with 43.3 μM α-tocotrienol for 30 minutes to incorporate the α-tocotrienol into the erythrocytes, and deformability of the erythrocytes was measured by the MC-FAN. As a control sample, human erythrocytes without α-tocotrienol were prepared, and the deformability was also measured.\nIn comparison, human erythrocytes were incubated with 40 μM α-tocopherol (vitamin E, Tokyo Kasei Kogyo) for 30 minutes to incorporate the α-tocopherol into the erythrocytes, and deformability of the erythrocytes was measured by the MC-FAN. As a result, passage time of the erythrocyte with a -tocopherol was 36 sec/ 100 μl RBC."}, "[2]": {"assay": "Antioxidant action on monolayer liposome (iron-ascorbic acid, AAPH, lipoxigenase systems)", "details": "tocotrienol compared with tocopherol", "description": "(§1) Strength of antioxidant action of tocotrienol and tocopherol on monolayer liposome and erythrocyte membrane was evaluated by using iron-ascorbic acid, 2, 2′-azobis (2-amidinopropane).2HCl (AAPH) which is a water-soluble radical generator and lipoxigenase reaction system."}, "erythrocyte membrane": {"test_system": "erythrocyte membrane", "assay": "Antioxidant action on erythrocyte membrane (iron-ascorbic acid, AAPH, lipoxigenase systems)", "format": "cell-based", "details": "tocotrienol compared with tocopherol", "description": "as §1"}, "[3]": {"test_system": "hemolysis by dialuric acid", "details": "amount relative to comparator; cited from earlier work"}},
  "data": [
    {"molecule": "Cc1c(C)c2c(c(C)c1O)CC[C@@](C)(CCC[C@H](C)CCC[C@H](C)CCCC(C)C)O2", "note": "[α-tocopherol, reference compound]", "values": [
      {"measurement": "Residual Rate (%) 1 hr.", "setting": "[1]", "value": "41 ± 3", "unit": "%"},
      {"measurement": "Residual Rate (%) 2 hrs.", "setting": "[1]", "value": "25 ± 4", "unit": "%"},
      {"measurement": "Residual Rate (%) 3 hrs.", "setting": "[1]", "value": "19 ± 3", "unit": "%"},
      {"measurement": "Passage Time", "setting": "Human erythrocytes", "value": "34 ± 5", "unit": "sec/100 μ1 RBC"},
      {"measurement": "passage time of the erythrocyte", "setting": "Human erythrocytes; incubated with 40 μM for 30 minutes", "value": 36, "unit": "sec/ 100 μl RBC"},
      {"measurement": "Ratio to Control", "setting": "Human erythrocytes", "value": 0.63}
    ]},
    {"molecule": "tocopherol [reference compound]", "values": [
      {"measurement": "strength of antioxidant action on monolayer liposome", "setting": "[2]", "value": "difference in the strength of antioxidant action on monolayer liposome was not found"}
    ]},
    {"molecule": "tocotrienol", "values": [
      {"measurement": "strength of antioxidant action on monolayer liposome", "setting": "[2]", "value": "difference in the strength of antioxidant action on monolayer liposome was not found"},
      {"measurement": "strength of antioxidant action on erythrocyte membrane", "setting": "erythrocyte membrane", "value": "much greater than that of tocopherol"},
      {"measurement": "incorporation (reaction rate with radicals) relative to tocopherol", "setting": "[1]; from residual rates on human erythrocyte membrane", "value": "about three to four times as much as that of tocopherol"},
      {"measurement": "ability of improving the deformability of erythrocytes", "setting": "Human erythrocytes; comparison of tocotrienol with tocopherol", "value": "more excellent than tocopherol"}
    ]},
    {"molecule": "CC(C)=CCC/C(C)=C/CC/C(C)=C/CC[C@]1(C)CCc2c(C)c(O)c(C)c(C)c2O1", "note": "[α-tocotrienol]", "values": [
      {"measurement": "Residual Rate (%) 1 hr.", "setting": "[1]", "value": "12 ± 2", "unit": "%"},
      {"measurement": "Residual Rate (%) 2 hrs.", "setting": "[1]", "value": "7 ± 1", "unit": "%"},
      {"measurement": "Residual Rate (%) 3 hrs.", "setting": "[1]", "value": "4 ± 1", "unit": "%"},
      {"measurement": "Passage Time", "setting": "Human erythrocytes", "value": "26 ± 5", "unit": "sec/100 μ1 RBC"},
      {"measurement": "passage time of the erythrocyte", "setting": "Human erythrocytes; incubated with 43.3 μM for 30 minutes, without compound 54", "value": "26 sec/100 μl erythrocyte (RBC)"},
      {"measurement": "Ratio to Control", "setting": "Human erythrocytes", "value": 0.47},
      {"measurement": "inhibition of hemolysis by dialuric acid", "setting": "[3]", "value": "inhibit hemolysis by dialuric acid even in an amount of one third"}
    ]}
  ]
}
